Test results: publication PMC10006169, “A phase I trial of LXS196, a protein kinase C (PKC) inhibitor, for metastatic uveal melanoma” (British Journal of Cancer, 2023)

Experiments:
PKC delta (pPKCd, S299) = assay: pPKC delta in tumour biopsies (Sally Sue microcapillary electrophoresis); type: in vivo, human; details: QD schedule
Text: Fresh metastatic tumour biopsies were collected at baseline (prior to first dose) and on treatment at C1D15 to evaluate the modulation of PKC substrate proteins in tumours following exposure to LXS196 and to perform exploratory transcriptome and targeted DNA sequencing. Whole blood samples (peripheral blood mononuclear cells; PBMCs) were collected pre-dose on C1D1 and D15, and at various time points post-dose on C1D1, D2, D3, D15 and D16 to evaluate the modulation of PKC substrate proteins in a surrogate tissue. Owing to the exploratory nature of this phase I study, formal statistical tests were not planned to be performed. Data are presented using descriptive statistics and visualisations. Continuous variables are described with the mean and range. […]
Custom assays were developed to measure the status of the PKC pathway. In brief, tumour tissue was homogenised in lysis buffer, and total protein concentrations were determined using a bicinchoninic acid (BCA) assay (Pierce). […] Total and phosphorylated PKCdelta (PKCd; pPKCd, phosphorylated at S299) levels were determined using microcapillary electrophoresis on the Sally Sue platform (Protein Simple, San Jose, CA, USA). Area under the peaks corresponding to the target was measured and used for further calculation. […]
Total and phosphorylated PKC delta were measured in all feasible tumour biopsies. […] The normalised PKC delta is calculated as follows: […]

dog = system: dog; parameters: method as in ref 20 = [20]; 20. IDEAYA Biosciences. IDE196 (LXS196, Darovasertib) investigator’s brochure. IDEAYA Biosciences; 2022.; details: cited from earlier work
[1] = system: skin-derived melanoma cell lines driven by mutant B-Raf or N-Ras; parameters: method as in ref 18 = [18]; 18. Visser M, Papillon J, Fan J, Luzzio M, Michael W, Wang R, et al. NVP-LXS196, a novel PKC inhibitor for the treatment of uveal melanoma. Paper presented at: Abstracts of papers of the American Chem; details: cited from earlier work

With `CC1(N)CCN(c2cccnc2NC(=O)c2nc(-c3ncccc3C(F)(F)F)cnc2N)CC1` [LXS196] as the compound, how does the “pPKC delta, mean (range) percentage change from baseline to C1D15 (normalised ratio)” value (PKC delta (pPKCd, S299)) read?
The value was −68.1 (−91.4, −28.6) %.

What about the Reversibility of findings (dog; 4-week recovery phase) of the same compound?
The Reversibility of findings was “partial to complete reversibility”.

And the Potential target organ (dog; 4-week toxicology study, dog)?
The Potential target organ was “GI tract”.

And the Potential toxicity (dog; single-dose and 4-week repeated dose, dog)?
The Potential toxicity was “decrease in systolic blood pressure”.

What about the Cellular activity [1] of the same compound?
The Cellular activity was “no activity observed”.
